Source: PMC5274652, “Antagonizing Retinoic Acid Receptors Increases Myeloid Cell Production by Cultured Human Hematopoietic Stem Cells” (Archivum Immunologiae et Therapiae Experimentalis, 2016)

How the values were obtained:
NB-4 cells = assay: Differentiation of NB-4 cells (CD11b/CD14 flow cytometry); type: cell-based, human; conditions: 96 h
Experimental: (§1) NB-4 and KG1 cells were obtained from the German Resource Center for Biological Material (DSMZ GmbH, Braunschweig, Germany). The cells were grown in RPMI-1640 medium supplemented with 10 % fetal bovine serum (FBS), 100 U/ml penicillin, and 100 µg/ml streptomycin (Sigma, St Louis, MO, USA). Cells were grown at 37 °C in 5 % CO2.
(§2) The expression of differentiation markers at the cell surface was determined by flow cytometry. Differentiation of NB-4 and KG1 cells was measured by staining using the monoclonal antibodies CD11b-FITC and CD14-PE and appropriately labeled isotype controls (all from ImmunoTools, Friesoythe, Germany). Differentiation of human CD34^+ve cells was measured by triple-color staining using various cocktails of phycoerythrin-, fluorescein isothyocyanate-, and PerCP-monoclonal antibodies (from Becton–Dickinson, San Jose, CA, USA). The markers used to identify cell populations were as follows: CD45^+ve leukocytes; CD34^+ve/CD133^+ve HSCs; CD33^+ve/CD13^+ve immature myeloid; CD117^+ve myeloblasts and promyelocytes; CD11b^+ve/CD15^+ve mature myeloid; CD11b^+ve/CD65^+ve neutrophils; CD11b^+ve/CD14^+ve monocytes; glycophorin^+ve A erythroid cells; CD61^+ve megakaryoblasts and platelets; CD2^+ve/CD5^+ve/CD7^+ve T cells and NK cells; CD56^+ve NK cells; CD19^+ve/CD20^+ve B cells; and CD10^+ve B lymphocyte progenitors; and present on mature neutrophils and DR^+ve progenitors and present on mature monocytes. The cells were stained with 1 µl of the fluorescently labeled antibody (or the appropriate control immunoglobulin) for 1 h on ice. Next, they were washed with ice-cold phosphate-buffered saline (PBS) and suspended in 0.5 ml PBS supplemented with 0.1 % bovine serum albumin (Sigma, St Louis, MO, USA) prior to analysis on FACS Calibur flow cytometer (Becton–Dickinson, San Jose, CA, USA). The acquisition parameters were set for an isotype control. Cells were analyzed using a FACSCalibur, and data analysis was performed using the CellQuest Pro software (Becton–Dickinson, San Jose, CA, USA).

human RARα = target: T1, human RARα (Homo sapiens, UniProt P10276); assay: Competition with [3H]-ATRA binding, nuclear extracts of Sf21 cells expressing RARα; conditions: nuclear extracts of baculovirus-infected Sf21 cells, read-out: Binding affinity ED50, RARα
T1 construct: made in house
T1 sequence (P10276 1-462): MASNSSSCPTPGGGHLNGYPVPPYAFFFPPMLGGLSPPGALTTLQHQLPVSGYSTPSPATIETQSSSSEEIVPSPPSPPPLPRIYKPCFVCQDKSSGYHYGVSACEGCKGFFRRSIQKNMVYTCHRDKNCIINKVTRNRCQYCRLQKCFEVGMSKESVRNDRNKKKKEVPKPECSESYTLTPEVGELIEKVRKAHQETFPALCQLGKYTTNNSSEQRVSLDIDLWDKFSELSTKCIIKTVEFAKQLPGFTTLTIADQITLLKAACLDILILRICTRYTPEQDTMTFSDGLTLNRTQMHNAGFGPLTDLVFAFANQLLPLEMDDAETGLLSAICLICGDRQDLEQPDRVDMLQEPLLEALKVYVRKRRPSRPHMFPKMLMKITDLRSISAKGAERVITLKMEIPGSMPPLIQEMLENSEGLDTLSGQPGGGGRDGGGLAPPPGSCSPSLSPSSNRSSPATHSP

human RARβ = target: T2, human RARβ (Homo sapiens, UniProt P10826); assay: Competition with [3H]-ATRA binding, nuclear extracts of Sf21 cells expressing RARβ; conditions: nuclear extracts of baculovirus-infected Sf21 cells, read-out: Binding affinity ED50, RARβ
T2 construct: made in house
T2 sequence (P10826 1-455): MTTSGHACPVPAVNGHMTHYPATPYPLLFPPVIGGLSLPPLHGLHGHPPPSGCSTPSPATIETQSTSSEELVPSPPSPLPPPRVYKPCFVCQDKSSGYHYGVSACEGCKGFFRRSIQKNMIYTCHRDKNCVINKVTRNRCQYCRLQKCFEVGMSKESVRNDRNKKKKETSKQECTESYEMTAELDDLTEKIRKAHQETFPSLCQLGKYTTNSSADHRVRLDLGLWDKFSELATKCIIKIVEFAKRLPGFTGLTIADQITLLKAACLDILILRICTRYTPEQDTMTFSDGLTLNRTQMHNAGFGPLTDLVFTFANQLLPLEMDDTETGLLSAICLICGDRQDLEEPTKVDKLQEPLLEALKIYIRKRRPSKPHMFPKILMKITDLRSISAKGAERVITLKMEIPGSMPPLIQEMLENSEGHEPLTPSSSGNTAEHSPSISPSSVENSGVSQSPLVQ

human RARγ = target: T3, human RARγ (Homo sapiens, UniProt P13631); assay: Competition with [3H]-ATRA binding, nuclear extracts of Sf21 cells expressing RARγ; conditions: nuclear extracts of baculovirus-infected Sf21 cells
T3 construct: made in house
T3 sequence (P13631 1-454): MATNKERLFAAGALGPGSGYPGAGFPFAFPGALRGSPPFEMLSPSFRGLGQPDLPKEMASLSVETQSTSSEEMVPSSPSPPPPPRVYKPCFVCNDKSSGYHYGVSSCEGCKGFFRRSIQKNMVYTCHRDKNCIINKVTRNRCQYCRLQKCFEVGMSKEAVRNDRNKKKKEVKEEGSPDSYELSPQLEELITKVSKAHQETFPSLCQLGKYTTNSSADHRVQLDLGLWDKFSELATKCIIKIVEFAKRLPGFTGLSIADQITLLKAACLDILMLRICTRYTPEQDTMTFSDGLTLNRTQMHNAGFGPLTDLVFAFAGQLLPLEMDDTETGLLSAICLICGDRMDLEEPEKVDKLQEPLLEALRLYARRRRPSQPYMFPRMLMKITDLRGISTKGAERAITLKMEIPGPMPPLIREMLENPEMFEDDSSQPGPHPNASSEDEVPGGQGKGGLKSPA

KG1 cells = assay: Differentiation of KG1 cells (CD11b/CD14 flow cytometry); type: cell-based, human; conditions: 96 h
Experimental: as §1, §2

CD34^+vehuHSC = assay: Cell production and lifespan of CD34+ve huHSC-initiated cultures; type: cell-based, human
Description: (§3) The cells used were CD34^+ve cells purified from the blood of normal human adult donors and post-mobilization of stem cells to the blood. Cells obtained and purified in this manner are used routinely by the National Blood Service Stem Cell Laboratory in Birmingham for bone marrow transplantation. Ethics approval for the use of adult human blood-mobilized stem cells (CD34^+vehuHSC) was from the West Midlands Research Ethics Committee. Informed consent was obtained by the regional National Blood Service Stem Cell Laboratory in Birmingham. CD34^+ve cells were purified to 99 % CD34^+ve, 97 % CD133^+ve, >99 % lineage^−ve (n = 15) using an anti-CD34 monoclonal antibody, immunomagnetic beads, and a CliniMACS magnetic separator. Purified cells were plated at 5 × 10^5 cells/ml in microtiter wells in 200 μl of either RPMI-1640 medium (R and D Systems, Abingdon, UK) or HPGM^TM hematopoietic growth medium (Lonza, UK) containing either 10 % FBS or 10 % human serum, antibiotics (100 U/ml penicillin and 100 μg/ml streptomycin) and stem cell factor (SCF), interleukin (IL)-3, and granulocyte-colony stimulating factor (G-CSF) (all from R and D Systems Abingdon, UK) as stated in the results. Cultures were fed every 2–3 days (with fresh compound), split into microtiter wells, and then expanded into 2 ml Costar wells to maintain a cell density of between 2.5 and 10 × 10^5 cells/ml. Cells were grown at 37 °C in 5 % CO2. Viable cells were enumerated by phase contrast microscopy (400× magnification).
as §2

[1] = test system: lineage^−ve/CD133^+ve/CD34^+vehuHSC; assay: Ex vivo expansion of lineage-ve/CD133+ve/CD34+ve huHSC; type: cell-based, human; conditions: all 15 donors; control 8–10-fold
Description: as §3, with “Viable cells were enumerated by phase contrast microscopy (400× magnification).” left out
The expression of differentiation markers at the cell surface was determined by flow cytometry. Differentiation of NB-4 and KG1 cells was measured by staining using the monoclonal antibodies CD11b-FITC and CD14-PE and appropriately labeled isotype controls (all from ImmunoTools, Friesoythe, Germany). Differentiation of human CD34^+ve cells was measured by triple-color staining using various cocktails of phycoerythrin-, fluorescein isothyocyanate-, and PerCP-monoclonal antibodies (from Becton–Dickinson, San Jose, CA, USA). […] Cells were analyzed using a FACSCalibur, and data analysis was performed using the CellQuest Pro software (Becton–Dickinson, San Jose, CA, USA).

C=C1/C(=C\C=C2/CCC[C@]3(C)[C@@H]([C@H](C)CCCC(C)(C)O)CC[C@@H]23)C[C@@H](O)C[C@@H]1O [1,25D, 1α,25-Dihydroxyvitamin D3]
CD11b+ve/CD14+ve cells (monocyte differentiation) (NB-4 cells; NB-4 cells, 10 nM, alone): ~ 6%

CC1(C)CCC(C)(C)c2c1cc(C(=O)Nc1cc(F)c(C(=O)O)c(F)c1)c(O)c2Cl [AGN195183]
IC50 (human RARα): 0.0201 µM | IC50 (human RARβ): > 5 µM | IC50 (human RARγ; read-out: Binding affinity ED50, RARγ): > 5 µM | CD11b+ve/CD14+ve cells (monocyte differentiation) (NB-4 cells; NB-4 cells, 100 nM combined with 10 nM 1,25D): 40% | CD11b+ve/CD14−ve cells (neutrophil differentiation) (NB-4 cells; NB-4 cells, 100 nM, alone): 40% | CD11b+ve/CD14+ve cells (monocyte differentiation) (KG1 cells; KG1 cells, 100 nM combined with 10 nM 1,25D): 18%

CCOc1c(Br)cc(C(=O)Nc2ccc(C(=O)O)cc2)cc1C(=O)c1ccc(C)cc1 [AGN196996]
IC50 (human RARα): 0.0039 µM | IC50 (human RARβ): 4.036 µM | Binding affinity ED50, RARγ (human RARγ): >10,000 nM | effect on differentiation of NB-4 cells (NB-4 cells; 100 nM with 10 nM 1,25D, compared with 1,25D alone): did not have an appreciable effect | effect on differentiation of NB-4 cells (NB-4 cells; 100 nM, used alone): no effect | effect on differentiation of KG1 cells (KG1 cells; 100 nM together with 10 nM 1,25D): no effect | effect on differentiation of KG1 cells (KG1 cells; 100 nM, used alone): no effect | cells (largely myeloid) produced versus γ antagonist-treated and control cultures (CD34^+vehuHSC; by day 20): around fourfold more cells | prolonged lifespan of cultures (CD34^+vehuHSC; human HSCs supplemented with stem cell factor ± interleukin 3, abstract): up to 55 days | expansion of lineage−ve/CD133+ve/CD34+ve cells [1]: around 20 fold

B1: granulocyte-colony stimulating factor (protein, UniProt P09919 31-207, looked up)
Granulocyte …: TPLGPASSLPQSFLLKCLEQVRKIQGDGAALQEKLVSECATYKLCHPEELVLLGHSLGIPWAPLSSCPSQALQLAGCLSQLHSGLFLYQGLLQALEGISPELGPTLDTLQLDVADFATTIWQQMEELGMAPALQPTQGAMPAFASAFQRRAGGVLVASHLQSFLEVSYRVLRHLAQP
notes: growth factor added at 30 ng/ml as benchmark for optimal generation of myeloid cells
cells produced versus control cultures (CD34^+vehuHSC; 30 ng/ml, by day 30): fourfold more cells | time for which cultures were maintained (CD34^+vehuHSC; 30 ng/ml, 10 % FBS, 100 ng/ml SCF, 5 ng/ml IL-3): ≤ 55 days
